For this experiment, the system named is BDF1 mice, colon carcinoma 38 sc, T/C %. The experiment is described as follows: NCI In Vivo Anticancer Drug Screen. Data for tumor model Colon Carcinoma 38 (subcutaneous) in B6D2F1 (BDF1) mice. Particulars: endpoint: median tumor weight (est.), higher = larger tumour. The gist of the method:
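Compound antitumor activity was assessed in mice carrying transplantable tumors. Survival or tumor size was recorded, and each value is the treated-group measurement divided by that of the vehicle-treated control group.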

Where [1] appears, read: dose: 100.0 mg/kg/injection, schedule: Q07DX002 (ip), vehicle: Klucel (hydroxypropylcellulose) (HPC).
Setting [2] is: dose: 200.0 mg/kg/injection, schedule: Q07DX002 (ip), vehicle: Klucel (hydroxypropylcellulose) (HPC).
The mark [3] stands for this setting: dose: 50.0 mg/kg/injection, schedule: Q07DX002 (ip), vehicle: saline with Tween-80.
The mark [4] stands for this setting: dose: 200.0 mg/kg/injection, schedule: Q07DX002 (ip), vehicle: saline with Tween-80.
Setting [5] is: dose: 100.0 mg/kg/injection, schedule: Q07DX002 (ip), vehicle: saline with Tween-80.
The mark [6] stands for this setting: dose: 400.0 mg/kg/injection, schedule: Q07DX002 (ip), vehicle: saline with Tween-80.

Each structure is given as a SMILES string. “And” between values parts separate entries of the source, which are not always exact repeats. Identical values can stand only once. Records with an inconclusive call do not appear.

As to `Cc1ccc(NCCN(C)C)c2c(=O)c3cc(O)ccc3sc12`, the T/C is, setting by setting: under setting [1], 42 % of control and 48 % of control; under setting [2], 17 % of control.

Regarding `CCCCNCCCNCCCNC(=O)c1csc(-c2csc(CCNC(=O)C(NC(=O)C(C)C(O)C(C)NC(=O)C(NC(=O)c3nc(C(CC(N)=O)NCC(N)C(N)=O)nc(N)c3C)C(OC3OC(CO)C(O)C(O)C3OC3OC(CO)C(O)C(OC(N)=O)C3O)c3cnc[nH]3)C(C)O)n2)n1` (centres undefined), the T/C by setting is: (dose: 3.75 mg/kg/injection, schedule: Q07DX002 (ip), vehicle: water) 81 % of control; (dose: 7.5 mg/kg/injection, schedule: Q07DX002 (ip), vehicle: water) 61 % of control; (dose: 15.0 mg/kg/injection, schedule: Q07DX002 (ip), vehicle: water) 56 % of control; (dose: 30.0 mg/kg/injection, schedule: Q07DX002 (ip), vehicle: water) 48 % of control.

As to `C[n+]1cccc(NC(=O)c2ccc(NC(=O)C34CCC(C(=O)Nc5ccc(C(=O)Nc6ccc[n+](C)c6)cc5)(CC3)CC4)cc2)c1`, the T/C reads like this: (dose: 10.0 mg/kg/injection, schedule: Q07DX002 (ip), vehicle: saline with Tween-80) 60 % of control; (dose: 20.0 mg/kg/injection, schedule: Q07DX002 (ip), vehicle: saline with Tween-80) 57 % of control; (dose: 22.5 mg/kg/injection, schedule: Q07DX002 (ip), vehicle: saline with Tween-80) 93 % of control; (dose: 40.0 mg/kg/injection, schedule: Q07DX002 (ip), vehicle: saline with Tween-80) 28 % of control; (dose: 45.0 mg/kg/injection, schedule: Q07DX002 (ip), vehicle: saline with Tween-80) 71 % of control; (dose: 80.0 mg/kg/injection, schedule: Q07DX002 (ip), vehicle: saline with Tween-80) 20 % of control. Moreover, the T/C (dose: 90.0 mg/kg/injection, schedule: Q07DX002 (ip), vehicle: saline with Tween-80) was 109 % of control.

Regarding `Nc1nc(-c2cccc3ccccc23)cc2ccccc12`, the T/C was 108 % of control (dose: 25.0 mg/kg/injection, schedule: Q07DX002 (ip), vehicle: saline with Tween-80); 123 % of control under setting [3]; 77 % of control under setting [4]; 108 % of control (dose: 800.0 mg/kg/injection, schedule: Q07DX002 (ip), vehicle: saline with Tween-80).

`Cc1ccc(-c2cc(=O)c3cccc(CC(=O)O)c3o2)cc1`: the T/C under setting [5] was 83 % of control and the T/C under setting [4] was 50 % of control.

With `Cc1c2ccccc2c(C)c2c1cc(C(=O)O)c1ccccc12`, the T/C is 67 % of control (dose: 62.5 mg/kg/injection, schedule: Q07DX002 (ip), vehicle: other); 101 % of control (dose: 125.0 mg/kg/injection, schedule: Q07DX002 (ip), vehicle: other); 152 % of control (dose: 250.0 mg/kg/injection, schedule: Q07DX002 (ip), vehicle: other); 58 % of control (dose: 500.0 mg/kg/injection, schedule: Q07DX002 (ip), vehicle: other); 87 % of control (dose: 1000.0 mg/kg/injection, schedule: Q07DX002 (ip), vehicle: other).

Turning to `[I][Hg][CH2]C1COC([CH2][Hg][I])CO1` (centres undefined), the T/C was 67 % of control (dose: 6.25 mg/kg/injection, schedule: Q07DX002 (ip), vehicle: suspension in saline) and 120 % of control (dose: 50.0 mg/kg/injection, schedule: Q07DX002 (ip), vehicle: suspension in saline).

Consider `CN(C)CCCOC(=O)Cc1cccc2c(=O)cc(-c3ccccc3)oc12`, for which the T/C is, setting by setting: under setting [1], 107 % of control; under setting [2], 81 % of control.

Consider `ClCC[N+]12CC[N+](CCCl)(CC1)C2`, for which the T/C by setting is: (dose: 12.5 mg/kg/injection, schedule: Q07DX002 (ip), vehicle: saline) 115 % of control and 123 % of control; (dose: 12.5 mg/kg/injection, schedule: Q07DX003 (ip), vehicle: saline) 56 % of control; (dose: 12.5 mg/kg/injection, schedule: Q07DX003 (ip), vehicle: water) 84 % of control; (dose: 25.0 mg/kg/injection, schedule: Q07DX003 (ip), vehicle: saline) 65 % of control; (dose: 25.0 mg/kg/injection, schedule: Q07DX003 (ip), vehicle: water) 78 % of control; (dose: 50.0 mg/kg/injection, schedule: Q07DX003 (ip), vehicle: saline) 72 % of control. Further, the T/C was 44 % of control (dose: 50.0 mg/kg/injection, schedule: Q07DX003 (ip), vehicle: water); 123 % of control (dose: 100.0 mg/kg/injection, schedule: Q07DX003 (ip), vehicle: saline); 45 % of control (dose: 100.0 mg/kg/injection, schedule: Q07DX003 (ip), vehicle: water); 70 % of control (dose: 200.0 mg/kg/injection, schedule: Q07DX003 (ip), vehicle: saline); 47 % of control and 52 % of control (dose: 400.0 mg/kg/injection, schedule: Q07DX002 (ip), vehicle: saline); 115 % of control (dose: 400.0 mg/kg/injection, schedule: Q07DX003 (ip), vehicle: saline).

Regarding `CCCCCCC(=O)/C=C/c1cccc(OCOCC)c1`, the T/C was 122 % of control under setting [3], 103 % of control under setting [5], 104 % of control under setting [4] and 89 % of control under setting [6].

Consider `Cc1noc(N)c1N`, for which the T/C (dose: 25.0 mg/kg/injection, schedule: Q07DX002 (ip), vehicle: water) is 79 % of control; the T/C (dose: 50.0 mg/kg/injection, schedule: Q07DX002 (ip), vehicle: water) was 82 % of control; the T/C (dose: 100.0 mg/kg/injection, schedule: Q07DX002 (ip), vehicle: water) is 78 % of control; the T/C (dose: 200.0 mg/kg/injection, schedule: Q07DX002 (ip), vehicle: water) was 101 % of control; the T/C (dose: 400.0 mg/kg/injection, schedule: Q07DX002 (ip), vehicle: water) was 74 % of control; the T/C (dose: 800.0 mg/kg/injection, schedule: Q07DX002 (ip), vehicle: water) was 95 % of control.

Regarding `CCCCCCCCSC1=C(Cl)C(=O)C(OC)=C(OC)C1=O`, the T/C (dose: 1.56 mg/kg/injection, schedule: Q07DX002 (ip), vehicle: saline with Tween-80) was 94 % of control and 95 % of control.

Turning to `CCCCN(CCCC)C(Cl)=Nc1ccccc1`, the T/C was 111 % of control and 118 % of control (dose: 12.5 mg/kg/injection, schedule: Q07DX002 (ip), vehicle: Klucel (hydroxypropylcellulose) (HPC)); 93 % of control and 94 % of control (dose: 25.0 mg/kg/injection, schedule: Q07DX002 (ip), vehicle: Klucel (hydroxypropylcellulose) (HPC)); 68 % of control and 89 % of control (dose: 50.0 mg/kg/injection, schedule: Q07DX002 (ip), vehicle: Klucel (hydroxypropylcellulose) (HPC)).

`CCOC(=O)C(C)(C)Oc1ccc(Cl)cc1`: the T/C by setting is: (dose: 12.5 mg/kg/injection, schedule: Q07DX002 (ip), vehicle: saline with Tween-80) 60 % of control; under setting [3], 94 % of control and 100 % of control; under setting [4], 110 % of control; under setting [6], 86 % of control.

Turning to `CC(=O)OCC12CCC(C)=CC1OC1C(=O)CC2(C)C12CO2` (centres undefined), the T/C (dose: 0.25 mg/kg/injection, schedule: Q07DX002 (ip), vehicle: saline) is 111 % of control; the T/C (dose: 10.0 mg/kg/injection, schedule: Q07DX002 (ip), vehicle: saline) was 155 % of control; the T/C (dose: 20.0 mg/kg/injection, schedule: Q07DX002 (ip), vehicle: saline) is 119 % of control.

With `CCOC(=O)CNC(=O)CCCCSc1ncnc2nc[nH]c12`, the T/C by setting is: (dose: 200.0 mg/kg/injection, schedule: Q07DX003 (ip), vehicle: saline with Tween-80) 74 % of control; (dose: 400.0 mg/kg/injection, schedule: Q07DX003 (ip), vehicle: saline with Tween-80) 104 % of control; (dose: 800.0 mg/kg/injection, schedule: Q07DX003 (ip), vehicle: saline with Tween-80) 79 % of control; (dose: 1600.0 mg/kg/injection, schedule: Q07DX003 (ip), vehicle: saline with Tween-80) 82 % of control.

As to `CC(Cc1ccc(O)c(O)c1)C(C)Cc1ccc(O)c(O)c1` (centres undefined), the T/C (dose: 25.0 mg/kg/injection, schedule: Q07DX002 (ip), vehicle: saline) was 100 % of control; the T/C (dose: 50.0 mg/kg/injection, schedule: Q07DX002 (ip), vehicle: saline) is 83 % of control; the T/C (dose: 100.0 mg/kg/injection, schedule: Q07DX002 (ip), vehicle: saline) is 94 % of control; the T/C (dose: 800.0 mg/kg/injection, schedule: Q07DX002 (ip), vehicle: saline) is 90 % of control.

These data come from PubChem BioAssay AID212 (DTP/NCI, 2004).
